Experiments:
L-type Ca^2+ channel = assay type: cell-based, rat (Sprague-Dawley); settings: 10 μM
T-type Ca^2+ channel = assay type: cell-based, rat (Sprague-Dawley); settings: 10 μM
[1] = system: tetrodotoxin-sensitive (TTX-S) sodium channels; settings: read-out: IC50 value, TTX-S voltage-gated sodium channels; cited from earlier work

Hainantoxin-IV [HNTX-IV]
effect on Ca^2+ currents (L-type) (L-type Ca^2+ channel): neither native HNTX-IV (Fig. 8A, 8B) nor rHNTX-IV (Fig. 8C, 8D) could cause obvious changes
effect on Ca^2+ currents (T-type) (T-type Ca^2+ channel): neither native HNTX-IV (Fig. 8A, 8B) nor rHNTX-IV (Fig. 8C, 8D) could cause obvious changes
IC50 [1]: 34 nM
